Measurements from EP0381335A1, “Antiviral agent and novel nucleoside” (TANABE SEIYAKU CO., LTD., priority 1989, dated 1990).
Like-named read-outs stand apart in the source and are kept apart here.

Tests used:
HIV = experiment: Anti-HIV assay: protection of HIV-infected MT-4 cells against cytopathic effect (trypan blue exclusion / MTT method); format: cell-based
Experimental: (§1) The anti-HIV activity of the agents that are subject of the present invention was measured according to the method of E. De Clercq et al. (The Journal of Virological Methods, 16 : 171 - 185 (1987) and The Journal of Virological Methods, 20 : 309-321 (1988)).
(§2) MT-4 cells of a 24 hours-old culture were suspended at 5 x 10⁵ cells per ml. Of this suspension, 2-ml portions were divided over polyisopropylene 2059 Falcon culture tubes (Becton Dickinson). The MT-4 cell suspensions were then centrifuged for 10 min at 140 x g and the supernatants were discarded. The MT-4 cell pellets were infected with 200 µl of a 1:5 HIV stock solution (titer 10³ CCID₅₀ ml; i.e., finally 10 CCID₅₀ well) in RPMI medium (composition as described above). Control MT-4 cell pellets were mock-infected with 200 µl RPMI medium. The culture tubes were then capsulated and subsequently incubated at 37 °C for 1.5 hours, upon which 1.8 ml of RPMI medium was added to each tube. The HIV-infected and mock-infected MT-4 cells were each pooled in two 45-ml centrifuge tubes.
(§3) Varying dilutions of the test compounds in RPMI medium were added in 100-µl volumes to the wells of a flat bottom, 96-well plastic microtiter tray (Sterilin Ltd. Teddington, Middlesex, England).
(§4) Of the HIV-infected or mock-infected MT-4 cell suspensions 100-µl volumes were added to the wells. The cell cultures were then incubated at 37 °C in a 5 % CO₂/95 % air humidified atmosphere. The cells remained in contact with the test compounds during the whole incubation period. Five days after infection the viability of the cells was examined microscopically in a hematocytometer by the trypan blue dye exclusion method.
(§5) Alternatively, viability of the cells was determined by the tetrazolium-based colorimetric method (MTT method) as described in the Journal of Virological Methods, 20 : 309 - 321 (1988).
(§6) Flat bottom, 96-well plastic mictrotiter trays (Falcon, Becton Dickinson, Mountain View, CA) were filled with 100 µl of complete medium using a Titertek® Multidrop dispenser (Flow Laboratories). This eight-channel dispenser could fill a microtiter tray in less than 10 s. Subsequently, stock solutions (10 x final test concentration) of compounds were added in 25 µl volumes to two series of triplicate wells so as to allow simultaneous evaluation of their effects on HIV- and mock-infected cells. Serial five-fold dilutions were made directly in the microtiter trays using an eight-channel Titertek® pipette (FLow Laboratories). Untreated control HIV- and mock-infected cell samples were included for each compound.
(§7) Exponentially growing MT-4 cells were centrifuged for 10 min at 140 x g and the supernatants were discarded. The pellet was either infected with 100 CCID₅₀ or mock-infected. The MT-4 cells were resuspended at 4 x 10⁵ cells/ml in two flasks which were connected with an autoclavable dispensing cassette of a Titertek® Multidrop dispenser. Under slight magnetic stirring 100-µl volumes were then transferred to the microtiter tray wells. The outer row wells were filled with 100 µl of medium. The cell cultures were incubated at 37 °C in a humidified atmosphere of 5 % CO₂ in air. The cells remained in contact with the test compounds during the whole incubation period. Five days after infection the viability of mock- and HIV infected cells was examined either microscopically in a hemacytometer by the trypan blue exclusion method or spectrophotometrically by the MTT method.
(§8) The MTT method is based on the reduction of the yellow coloured 3-(4,5-dimethylthiazol-2-yl)-2,5-diphenyltetrazolium bromide (MTT) (Sigma Chemical Co., St. Louis, MO) by mitochondrial dehydrogenases of metabolically active cells to a blue formazan which can be measured spectrophotometrically. Therefore, to each well of the microtiter trays, 20 µl of a solution of MTT (7.5 mg/ml) in phosphate-buffered saline was added using the Titertek® Multidrop. The trays were further incubated at 37 °C in a CO₂ incubator for the indicated times. […]

MT-4 cells = experiment: Cytotoxicity in mock-infected MT-4 cells (trypan blue exclusion / MTT method); format: cell-based; settings: for HIV (µM) TD₅₀: human, 5 days
Experimental: as §1, §2, §3, §4, §5, §6, §7, §8

[1] = Human immunodeficiency virus 1, MT4, effective amount necessary for permitting the cells infected with HIV to live to the 5th day after infection, read-out: ED₅₀
[2] = Human immunodeficiency virus 1, MT4, 120 h, HIV-infected MT-4 cells, five days after infection, MTT method, dose achieving 50 % protection, read-out: HIV (µM) ED₅₀

Compound | EC50 (HIV; [1]) [µM] | EC50 (HIV; [2]) [µM] | cytotoxicity (MT-4 cells; at the concentration of 500 µM) | cytotoxicity (MT-4 cells; at the concentration of 125 µM) | HIV (µM) TD₅₀ (MT-4 cells) [µM]
NO[C@H]1C[C@H](n2ccc(N)nc2=O)O[C@@H]1CO [3′-O-amino-2′-deoxycytidine] | 61 | – | no cytotoxicity appeared | – | –
Cc1cn([C@H]2C[C@H](ONC=O)[C@@H](CO)O2)c(=O)[nH]c1=O [compound 1, 3′-O-formamidothymidine] | – | 13 | – | – | 144
C=NO[C@H]1C[C@H](n2cc(C)c(=O)[nH]c2=O)O[C@@H]1CO [compound 2, 3′-O-methylideneaminothymidine] | – | 17 | – | – | 106
NO[C@H]1C[C@H](n2cnc3c(=O)[nH]c(N)nc32)O[C@@H]1CO [compound 5, 9-(3-O-amino-2-deoxy-β-D-erythro-pentofuranosyl)guanine] | – | 2.17 | – | – | 74.03

Second part, led by results:

EC50 (HIV; [1]) [µM] | EC50 (HIV; [2]) [µM] | Compound | cytotoxicity (MT-4 cells; at the concentration of 500 µM) | cytotoxicity (MT-4 cells; at the concentration of 125 µM) | HIV (µM) TD₅₀ (MT-4 cells) [µM]
23 | – | Cc1cn([C@H]2C[C@H](ON)[C@@H](CO)O2)c(=O)[nH]c1=O [3′-O-aminothymidine] | – | only slight cytotoxicity appeared | –
– | 32 | CC(C)=NO[C@H]1C[C@H](n2cc(C)c(=O)[nH]c2=O)O[C@@H]1CO [compound 3, 3′-O-isopropylideneaminothymidine] | – | – | 313
32 | 32 | NO[C@H]1C[C@H](n2cnc3c(N)ncnc32)O[C@@H]1CO [compound 4, 9-(3-O-amino-2-deoxy-β-D-erythro-pentofuranosyl)adenine] | – | – | 1000
